Results taken from patent publication US20230219886A1, “NOVEL SELENO-NSAID ANALOGS AND USES THEREOF” (THE PENN STATE RESEARCH FOUNDATION, priority 2020, published 2023).
“Also recorded” adds a separate entry of the source. Read-outs that look alike come from different tables or passages of the source.

Experiments:
[1] = tested on: DU-145 (prostate carcinoma); experiment: MTT cell viability assay, DU-145; details: for cell viability: 48 h
Procedure: (§1) Cell Culture Conditions. The cell lines were obtained from the American Type Culture Collection (ATCC). PANC-1 and Caco-2 cell lines were maintained in DMEM medium (Gibco); HT-29, HCT-116 and RKO cells were maintained in McCoy's 5A medium (Gibco); and DU-145 and H1299 cells were maintained in RPMI 1640 medium (Gibco), supplemented with 10% fetal bovine serum (FBS; Gibco) and 1% antibiotics (10.00 units/mL penicillin and 10.00 mg/mL streptomycin; Gibco). Cells were preserved in tissue culture flasks at 37° C. and 5% CO2. Culture medium was replaced every three days.
(§2) Cell Viability Assay. The effect of each compound on cell viability was tested using the MTT assay (81). Briefly, 9000 cells/well were grown in 96-well plates for 12 h. Then these cells were incubated with either DMSO (control) or nine different concentration between 0.01-50 μM of the test compounds for 24, 48, and 72 h. Three hours before the termination point, 20 μL of MTT were added to measure cellular viability. The resultant formazan crystals were dissolved in 50 μL of DMSO, and absorbance was measured at 570 nm and 630 nm wavelengths. IC50, GI50, TGI and LC50 values were calculated using OriginPro 8.5.1.
Evaluation of the antiproliferative activities of the novel molecules. […] These four cell lines were treated with each compound at three concentrations (5, 25 and 50 μM) for 48 h.

HCT-116 CRC cells = experiment: MTT cell viability assay, HCT-116; assay type: cell-based, human; details: read-out: IC50
Procedure: as §1, §2

[2] = tested on: human CRC cells (HT-29, HCT-116, RKO and CACO-2); experiment: MTT assay, panel of four CRC cells; assay type: cell-based; details: 4 CRC cells
Procedure: Cell Culture Conditions. […] Culture medium was replaced every three days.
Evaluation of the antiproliferative activity of methylseleno-NSAIDs, MSA and NSAIDs alone or in combination. […] CRC cells were treated for 24, 48 and 72 h at different concentrations to stablish the dose-response curves.

HT-29 (CRC cells) = experiment: NCI-60 one-dose screen, HT-29; assay type: cell-based, human; details: HT-29, 10 μM, 48 h
Excerpt: (§3) NCI-60 Analysis. 1a and 6a were submitted to National Cancer Institute's (NCI) Developmental Therapeutics Program (DTP) where the cytotoxicity profile was investigated across their 60 human cancer cell line panel according to the protocol available on multiple sources (71-73, 83). The COMPARE algorithm (73), was utilized to evaluate the activity profile of 6a in comparison to those of known cytotoxins established in marketed drugs and standard agent data sets in order to correlate plausible modes of action.
(§4) NCI-60 analysis. Compounds 1a, 5a and 6a were submitted to the National Cancer Institute's (NCI) Developmental Therapeutics Program (DTP). NCI-60 program consists in a panel of 60 human cancer cell lines from a variety of cancers, including refractory tumors such as lung, ovarian, CRC, breast, brain and renal cancers, and melanomas together with more treatable cancers such as leukemias (71). 1a [NSC: 803071], 5a [NSC: 820332] and 6a [NSC: 811013] were initially screened at one dose (10 μM) at 48 h. Then, NCI selected only compound 6a to perform dose-response characterization (72).

[3] = tested on: NCI-H226 (non-small cell lung cancer); experiment: NCI-60 one-dose screen, NCI-H226; assay type: cell-based, human; details: NCI-H226, 10 μM, 48 h
Excerpt: as §3, §4

BxPC3 cells [4] = experiment: MTT assay, pancreatic ductal adenocarcinoma cells BxPC3; assay type: cell-based
Procedure: (§5) The cytotoxic response of 6a on pancreatic ductal adenocarcinoma cell lines (Panc-1, MIA PaCa-2 and BxPC3) was evaluated using MTT assay. […] To determine whether the in vitro efficacy of 6a translates to in vivo models, we performed a pilot tumor inhibition study in xenograft mouse model using BxPC3 cells. Athymic nude mice were subcutaneously injected with BxPC3 cells. After two weeks, mice were injected intraperitoneally with vehicle DMSO (control) or 6a (three times a week at a dose of 4 mg/Kg in 100 μL of DMSO). Tumor size and animal weights were measured twice a week.

ME: LOX IMVI = experiment: NCI-60 dose-response, LOX IMVI; assay type: cell-based, human; details: 48 h
Excerpt: as §3, §4

CNS: SF-295 = experiment: NCI-60 dose-response, SF-295; assay type: cell-based, human; details: SF-295, 48 h
Excerpt: as §3, §4

RE: A498 = experiment: NCI-60 dose-response, A498; assay type: cell-based, human; details: A498, 48 h
Excerpt: as §3, §4

CNS: SF-539 = experiment: NCI-60 dose-response, SF-539; assay type: cell-based, human; details: SF-539, 48 h
Excerpt: as §3, §4

LC: EKVX = experiment: NCI-60 dose-response, EKVX; assay type: cell-based, human; details: 48 h
Excerpt: as §3, §4

LC: HOP-62 = experiment: NCI-60 dose-response, HOP-62; assay type: cell-based, human; details: HOP-62, 48 h
Excerpt: as §3, §4

OV: OVCAR-5 = experiment: NCI-60 dose-response, OVCAR-5; assay type: cell-based, human; details: OVCAR-5, most resistant cell line
Excerpt: as §3, §4

[5] = tested on: NCI-60 human cancer cell line panel; experiment: NCI-60 dose-response, whole panel; assay type: cell-based
Excerpt: as §3, §4

BxPC3 cells [6] = experiment: Subcutaneous xenograft tumor inhibition study in athymic nude mice; assay type: in vivo
Procedure: as §5

[7] = Systemic toxicity in xenograft mice; assay type: in vivo
Procedure: as §5

[8] = Homo sapiens, DU-145, 48 h, read-out: cell viability
[9] = read-out: LC50 (the source's name)
[10] = 4 mg/Kg i.p. three times a week

## C[Se]C(=O)c1ccccc1OC(C)=O [Compound 1a, 2-((methylselanyl)carbonyl)phenyl acetate]
[1]; [8]
  viability at 5 µM: 43.2 ± 1.8%
  viability at 25 µM: 35.9 ± 7%
  viability at 50 µM: 36.5 ± 6.7%
HCT-116 CRC cells; Homo sapiens, HCT-116, 24 h
  IC50: > 50000 nM
HCT-116 CRC cells; Homo sapiens, HCT-116, 48 h
  IC50: 2200 ± 300 nM
HCT-116 CRC cells; Homo sapiens, HCT-116, 72 h
  IC50: 1000 ± 200 nM
[2]
  anti-tumoral activity versus MSA and NSAIDs as single agents or combined: higher anti-tumoral activity
HT-29 (CRC cells)
  Growth percent (GP): < 12%
[3]
  Growth percent (GP): < 12%

## C[Se]C(=O)CC1=C(C)/C(=C/c2ccc([S+](C)[O-])cc2)c2ccc(F)cc21 (stereo not shown) [Compound 6a, Se-methyl (Z)-2-(5-fluoro-2-methyl-1-(4-(methylsulfinyl)benzylidene)-1H-indenyl)ethaneselenoate]
[1]; DU145, 5 μM
  cell viability: 60.1 ± 2.2%
[1]; DU145, 25 μM
  cell viability: 44.9 ± 2.4%
[1]; DU145, 50 μM
  cell viability: 52.5 ± 2.9%
HCT-116 CRC cells; HCT-116, 24 h
  IC50: 7300 ± 2300 nM
HCT-116 CRC cells; HCT-116, 48 h
  IC50: 3200 ± 700 nM
HCT-116 CRC cells; HCT-116, 72 h
  IC50: 1800 ± 600 nM
BxPC3 cells [4]
  IC50: 1000 nM
[2]
  anti-tumoral activity versus MSA and NSAIDs as single agents or combined: higher anti-tumoral activity
ME: LOX IMVI
  GI50: 14.1 nM
  LC50 (concentration giving 50% net cell kill): 62.1 nM
  TGI: 29.6 nM
CNS: SF-295
  GI50: 24.2 nM
  LC50: 386 nM
  TGI: 107 nM
RE: A498
  GI50: 38.8 nM
  TGI: 184 nM
RE: A498; [9]
  CC50: 658 nM
CNS: SF-539
  GI50: 105 nM
  TGI: 275 nM
CNS: SF-539; [9]
  CC50: 718 nM
LC: EKVX
  GI50: < 10 nM
  TGI: 10.8 nM
LC: EKVX; [9]
  CC50: 861 nM
LC: HOP-62
  GI50: < 10 nM
  LC50: 941 nM
  TGI: 155 nM
OV: OVCAR-5
  GI50: 47 nM
  TGI: 410 nM
OV: OVCAR-5; [9]
  CC50: 3900 nM
[5]; LE:SR, CCRF-CEM, HCT-116, HL60, NCI-H522, MOLT-4
  cytotoxic activity towards the 6 most sensitive cells of the panel: negligible
[5]; TK10, SK-MEL-28, SNB-19, SK-OV-3, NCI-H322M, OVCAR-5
  activity towards the 6 most resistant cells: outstanding activity
[5]; in all cell lines, except for seven
  TGI values: below 12 μM
[5]; in four NSCLS and two CNS cell lines
  GI50: < 10 nM
BxPC3 cells [6]; 4 mg/Kg i.p. three times a week, 22 days since start of treatment
  reduction of tumor weight as compared to control mice: 42.9%
BxPC3 cells [6]; 4 mg/Kg i.p., three times a week, nude mice xenograft
  tumor growth: significantly inhibited; also recorded: significantly reduced
[7]; [10]
  alanine aminotransferase (SGPT): 19 U/L
  bilirubin toxicity: 0.40 mg/dL
  blood urea nitrogen: 23 mg/dL
  body weight loss as compared to the control mice: did not show any significant weight loss
[7]; at the dose used (4 mg/Kg)
  systemic toxicity: no evidence of systemic toxicity
